Measurements taken from the NIST ThermoML archive (doi:10.1016/j.jct.2015.03.019).
“And” between values parts separate entries of the source, which are not always exact repeats. Equal entries are not always repeated. Numbers after ± are expanded uncertainties.

Assay: molar heat capacity at constant pressure
Conditions: 101.33 kPa, Crystal, Small (less than 1 g) adiabatic calorimetry

CC(C)(C)c1ccc(Oc2ccccc2)cc1 [4-tert-butylphenyl phenyl ether]
Conditions	molar heat capacity at constant pressure
5 K	0.671 ± 0.044 J/K/mol
7.93 K	2.627 ± 0.12 J/K/mol
8.1 K	2.719 ± 0.12 J/K/mol
8.28 K	3.035 ± 0.14 J/K/mol
8.43 K	3.06 ± 0.14 J/K/mol
8.59 K	3.268 ± 0.15 J/K/mol
8.75 K	3.459 ± 0.16 J/K/mol
8.9 K	3.675 ± 0.17 J/K/mol
9.05 K	3.725 ± 0.17 J/K/mol
9.2 K	3.958 ± 0.17 J/K/mol
9.49 K	4.365 ± 0.19 J/K/mol
9.63 K	4.573 ± 0.2 J/K/mol
9.78 K	4.881 ± 0.22 J/K/mol
9.92 K	5.097 ± 0.22 J/K/mol
10 K	4.906 ± 0.17 J/K/mol
10.28 K	5.488 ± 0.24 J/K/mol
10.56 K	5.961 ± 0.26 J/K/mol
10.85 K	6.419 ± 0.27 J/K/mol
11.15 K	6.884 ± 0.3 J/K/mol
12.02 K	8.298 ± 0.36 J/K/mol
12.32 K	8.896 ± 0.42 J/K/mol
12.61 K	9.395 ± 0.42 J/K/mol
12.91 K	9.977 ± 0.42 J/K/mol
13.21 K	10.48 ± 0.42 J/K/mol
13.51 K	11.06 ± 0.5 J/K/mol
13.81 K	11.64 ± 0.5 J/K/mol
14.11 K	12.22 ± 0.5 J/K/mol
14.41 K	12.72 ± 0.5 J/K/mol
14.71 K	13.3 ± 0.58 J/K/mol
15 K	13.89 ± 0.33 J/K/mol
15.02 K	13.97 ± 0.58 J/K/mol
15.32 K	14.55 ± 0.58 J/K/mol
15.63 K	15.05 ± 0.67 J/K/mol
15.94 K	15.71 ± 0.67 J/K/mol
16.25 K	16.3 ± 0.67 J/K/mol
16.56 K	16.96 ± 0.75 J/K/mol
16.87 K	17.63 ± 0.75 J/K/mol
17.18 K	18.13 ± 0.75 J/K/mol
17.49 K	18.96 ± 0.75 J/K/mol
17.8 K	19.54 ± 0.83 J/K/mol
18.12 K	20.12 ± 0.83 J/K/mol
18.43 K	20.79 ± 0.83 J/K/mol
18.74 K	21.29 ± 0.91 J/K/mol
19.06 K	21.95 ± 0.91 J/K/mol
19.37 K	22.7 ± 0.91 J/K/mol
19.68 K	23.36 ± 1 J/K/mol
20 K	23.95 ± 1 J/K/mol and 23.95 ± 0.58 J/K/mol
20.57 K	25.05 ± 0.42 J/K/mol
21.33 K	26.59 ± 0.44 J/K/mol
22.1 K	28.07 ± 0.47 J/K/mol
22.86 K	29.59 ± 0.48 J/K/mol
23.63 K	31.1 ± 0.51 J/K/mol
24.4 K	32.68 ± 0.53 J/K/mol
25 K	33.84 ± 0.75 J/K/mol
25.18 K	34.25 ± 0.55 J/K/mol
25.95 K	35.83 ± 0.57 J/K/mol
26.73 K	37.02 ± 0.58 J/K/mol
27.51 K	38.42 ± 0.6 J/K/mol
28.29 K	39.88 ± 0.62 J/K/mol
29.07 K	41.31 ± 0.64 J/K/mol
29.85 K	42.77 ± 0.66 J/K/mol
30 K	43.07 ± 0.83 J/K/mol
30.63 K	44.28 ± 0.67 J/K/mol
31.42 K	45.65 ± 0.68 J/K/mol
32.21 K	47 ± 0.71 J/K/mol
33 K	48.3 ± 0.72 J/K/mol
33.79 K	49.62 ± 0.74 J/K/mol
34.58 K	50.93 ± 0.76 J/K/mol
35 K	51.38 ± 0.58 J/K/mol
35.37 K	52 ± 0.77 J/K/mol
36.16 K	53.14 ± 0.79 J/K/mol
36.95 K	54.29 ± 0.81 J/K/mol
37.74 K	55.42 ± 0.82 J/K/mol
38.53 K	56.54 ± 0.84 J/K/mol
39.32 K	57.57 ± 0.86 J/K/mol
40 K	58.7 ± 0.67 J/K/mol
40.11 K	58.69 ± 0.55 J/K/mol
40.91 K	59.85 ± 0.56 J/K/mol
41.7 K	61.07 ± 0.57 J/K/mol
42.49 K	62.01 ± 0.57 J/K/mol
43.29 K	63.2 ± 0.59 J/K/mol
44.08 K	64.35 ± 0.6 J/K/mol
44.88 K	65.44 ± 0.61 J/K/mol
45 K	65.52 ± 0.42 J/K/mol
45.68 K	66.42 ± 0.62 J/K/mol
46.48 K	67.56 ± 0.62 J/K/mol
47.28 K	68.56 ± 0.63 J/K/mol
48.08 K	69.68 ± 0.64 J/K/mol
48.87 K	70.7 ± 0.65 J/K/mol
49.67 K	71.74 ± 0.67 J/K/mol
50 K	72.09 ± 0.5 J/K/mol
50.47 K	72.8 ± 0.67 J/K/mol
51.27 K	73.72 ± 0.68 J/K/mol
52.07 K	74.77 ± 0.69 J/K/mol
52.87 K	75.83 ± 0.7 J/K/mol
53.67 K	77.23 ± 0.71 J/K/mol
56.08 K	80.21 ± 0.73 J/K/mol
56.88 K	81.22 ± 0.74 J/K/mol
57.68 K	82.24 ± 0.75 J/K/mol
58.49 K	83.23 ± 0.75 J/K/mol
59.3 K	84.31 ± 0.75 J/K/mol
60 K	85.31 ± 0.58 J/K/mol
60.1 K	85.31 ± 0.75 J/K/mol
60.91 K	86.3 ± 0.75 J/K/mol
61.71 K	87.3 ± 0.83 J/K/mol
62.51 K	88.3 ± 0.83 J/K/mol
64.11 K	90.88 ± 0.83 J/K/mol
64.92 K	91.87 ± 0.83 J/K/mol
65.72 K	92.71 ± 0.83 J/K/mol
66.52 K	93.62 ± 0.83 J/K/mol
67.33 K	94.45 ± 0.83 J/K/mol
68.13 K	95.12 ± 0.83 J/K/mol
68.94 K	96.12 ± 0.91 J/K/mol
69.74 K	96.95 ± 0.91 J/K/mol
70 K	97.28 ± 0.5 J/K/mol
70.74 K	97.94 ± 0.91 J/K/mol
71.95 K	99.19 ± 0.91 J/K/mol
73.16 K	100.61 ± 0.91 J/K/mol
74.36 K	101.94 ± 0.91 J/K/mol
75.56 K	102.6 ± 0.91 J/K/mol
76.77 K	103.6 ± 0.91 J/K/mol
77.98 K	104.6 ± 0.91 J/K/mol
79.18 K	105.68 ± 1 J/K/mol
80 K	106.59 ± 0.58 J/K/mol
80.21 K	106.67 ± 0.58 J/K/mol
80.39 K	106.92 ± 0.58 J/K/mol
81.01 K	107.17 ± 0.67 J/K/mol
81.6 K	108.09 ± 0.67 J/K/mol
81.81 K	108.17 ± 0.67 J/K/mol
82.62 K	108.84 ± 0.67 J/K/mol
82.8 K	109.25 ± 0.67 J/K/mol
83.42 K	109.58 ± 0.67 J/K/mol
84.01 K	110.25 ± 0.67 J/K/mol
85.83 K	111.83 ± 0.67 J/K/mol
86.63 K	112.66 ± 0.67 J/K/mol
87.43 K	113.33 ± 0.67 J/K/mol
88.23 K	114.16 ± 0.67 J/K/mol
89.03 K	115.07 ± 0.67 J/K/mol
89.84 K	115.9 ± 0.67 J/K/mol
90 K	115.99 ± 0.58 J/K/mol
90.64 K	116.65 ± 0.67 J/K/mol
91.44 K	117.48 ± 0.67 J/K/mol
92.24 K	118.23 ± 0.67 J/K/mol
93.05 K	119.15 ± 0.67 J/K/mol
93.85 K	119.73 ± 0.67 J/K/mol
94.65 K	120.48 ± 0.67 J/K/mol
95.46 K	121.14 ± 0.67 J/K/mol
96.26 K	121.97 ± 0.67 J/K/mol
97.06 K	122.72 ± 0.67 J/K/mol
97.87 K	123.22 ± 0.67 J/K/mol
98.67 K	124.05 ± 0.67 J/K/mol
99.47 K	125.13 ± 0.75 J/K/mol
100 K	125.71 ± 0.58 J/K/mol
100.28 K	125.8 ± 0.75 J/K/mol
101.28 K	127.13 ± 0.75 J/K/mol
102.48 K	128.13 ± 0.75 J/K/mol
103.69 K	129.21 ± 0.75 J/K/mol
104.89 K	130.45 ± 0.75 J/K/mol
106.1 K	131.45 ± 0.75 J/K/mol
107.32 K	132.78 ± 0.75 J/K/mol
108.53 K	133.86 ± 0.75 J/K/mol
109.74 K	134.86 ± 0.75 J/K/mol
110 K	135.19 ± 0.67 J/K/mol
110.96 K	136.11 ± 0.75 J/K/mol
112.17 K	137.19 ± 0.75 J/K/mol
113.39 K	138.27 ± 0.75 J/K/mol
114.61 K	139.43 ± 0.75 J/K/mol
115.83 K	140.51 ± 0.75 J/K/mol
117.05 K	141.6 ± 0.75 J/K/mol
118.28 K	142.59 ± 0.83 J/K/mol
119.5 K	143.76 ± 0.83 J/K/mol
